{"source": "patent US9289471B2", "about": "“Product and process for liquefaction of mucus or sputum” (National Jewish Health, priority 2002, dated 2016)", "assay": "Compaction assay: percent liquid fraction of CF sputum", "set-up": "species or system human", "settings": "for percent liquid fraction: 20 min (FIG. 3A); for liquefying sputum: concentrations below 1 mM; for 3 day range of percent of sputum in the liquid state: donor B; for range of percent liquid values: donor C", "experimental": "CF sputum stored at −80° C. was thawed at room temperature and aliquoted into 1.5 ml Eppendorf centrifuge tubes at volumes of 275 μl using a positive displacement pipette (Rainin, Emeryville, Calif.). Sputum samples were subjected to either diluent (H2O), Trx+TR+NADPH, GSH+glutathione reductase+NADPH, dithiothreitol (DTT) or N-acetylcysteine treatment by the addition of 25 μl of H2O containing the appropriate molar concentration of each agent. After brief vortexing (˜1 second), sample tubes were loaded onto a microtube rotisserie (Barnstead, Dubuque, Iowa) and incubated at 37° C. for 20 minutes. Samples were then processed for compaction assay according to methodology originated by Daugherty et al. (Daugherty et al., Biomaterials 16:553-558, 1995). To perform the assay, the contents of each sample were loaded into 100 μl glass micro-capillary tubes (Fisher Scientific) that had been previously welded to 200 μl pipette tips in order to achieve a tight fit. Three modified capillary tubes were used to draw up >90% of each sputum sample. Capillary tubes were then removed from their pipette tip, sealed with clay, and centrifuged for 10 minutes in a hematocrit centrifuge (IEC, Needham Heights, Mass.), followed by measurement of the length in millimeters of the gel (solid) and aqueous (liquid) phases in each tube. The percent liquid fraction of each capillary tube was calculated by dividing aqueous phase length by total length (gel+aqueous)×100. The three measurements of the liquid fraction (%) derived from each sample were then averaged to generate a single value for each treatment condition.\nDue to abnormal ion transport caused by defects in the CFTR gene, airway secretions in CF patients are often desiccated. As a consequence, purulent CF sputum is comprised largely of a rigid and nonflowing biopolymer matrix, often referred to as gel phase, and lesser amounts of soluble, liquid phase. To assess the effect of Trx on the ratios of these two phases in sputum, compaction assay measurements were performed. […] After 20 minute incubation, the liquid fraction of each sample was determined by compaction assay.\nTo examine the effect of NADPH, additional samples from different donors were treated with 30 μM Trx, 0.1 μM TR and either 0, 0.2, 0.6, 1.0 or 2 mM NADPH for 20 minutes.\nTo assess the reproducibility of compaction assay measurements, sputum samples from three different CF donors were separated into aliquots and frozen. Specifically, freshly isolated CF sputum from three different donors (A, B, C) was separated into 275 μl aliquots and frozen. […] Results obtained from three independent experiments performed on each donor sample were used to evaluate assay reproducibility. On three consecutive days, aliquots were thawed, and treated with water, Trx and its reducing system, dithiothreitol (DTT), or no treatment.\nThe effectiveness of Trx in liquefying sputum was compared with other monothiol and dithiol reducing agents. Sputum samples were aliquoted and treated with Trx or GSH for 20 minutes and percent liquid determined by compaction assay. Initial compaction assay experiments compared the potencies of the Trx and GSH reducing systems in liquefaction of sputum in the presence of equimolar concentrations of NADPH. […] The analysis of Trx and NAC efficacy also was determined after 20 minute incubation, but on a different set of sputum samples.", "data": [{"smiles": "N[C@@H](CCC(=O)N[C@@H](CS)C(=O)NCC(=O)O)C(=O)O", "note": "[GSH, glutathione]", "values": [{"measurement": "percent liquid fraction", "setting": "30 μM GSH + 0.1 μM Gr + 2 mM NADPH", "result": "7.8±5.7", "unit": "%"}, {"measurement": "percent liquid fraction", "setting": "100 μM GSH + 0.1 μM Gr + 2 mM NADPH", "result": "15.9±9.3", "unit": "%"}, {"measurement": "percent liquid fraction", "setting": "1 mM GSH + 0.1 μM Gr + 2 mM NADPH", "result": "27.6±3.9", "unit": "%"}, {"measurement": "significance of increase in liquid fraction versus control", "setting": "GSH at comparable or higher concentrations up to 1 mM", "result": "a significant increase in the liquid fraction of sputum was not observed"}, {"measurement": "liquefying sputum", "result": "ineffective"}]}, {"smiles": "CC(=O)N[C@@H](CS)C(=O)O", "note": "[N-acetylcysteine]", "values": [{"measurement": "liquefying sputum", "result": "ineffective"}, {"measurement": "effectiveness in causing liquefaction of sputum compared with Trx", "setting": "range of concentrations, 20 min, 4 experiments (FIG. 3B)", "result": "less effective than Trx"}]}, {"smiles": "O[C@H](CS)[C@H](O)CS", "note": "(racemic) [DTT, dithiothreitol]", "values": [{"measurement": "3 day range of percent of sputum in the liquid state", "setting": "1 mM DTT", "result": "24-31%"}, {"measurement": "3 day range of percent of sputum in the liquid state", "setting": "5 mM DTT", "result": "42-57%"}, {"measurement": "range of percent liquid values", "setting": "1 mM DTT", "result": "57-61%"}, {"measurement": "range of percent liquid values", "setting": "5 mM DTT", "result": "77-79%"}, {"measurement": "sputum liquefying effectiveness compared with NAC", "setting": "equimolar basis (FIGS. 2 and 3; data not shown)", "result": "more effective on an equimolar basis than NAC"}]}, {"smiles": "NC(=O)C1=CN([C@@H]2O[C@H](COP(=O)(O)OP(=O)(O)OC[C@H]3O[C@@H](n4cnc5c(N)ncnc54)[C@H](OP(=O)(O)O)[C@@H]3O)[C@@H](O)[C@H]2O)C=CC1", "note": "[NADPH, β-Nicotinamide adenine dinucleotide phosphate, reduced form]", "values": [{"measurement": "increase in proportion of sputum present in the liquid fraction", "setting": "NADPH in the absence of Trx (not shown)", "result": "did not cause any increase"}]}]}
